Measurements from paper PMC10221074, “Functional Profiling of the A-Family of Venom Peptides from the Wolf Spider Lycosa shansia” (Toxins, 2023).

Experiments:
A/Hessen/1/2003 (H3N2) = format: cell-based, influenza virus
[1] = system: panel of seven bacterial strains; test: Antibacterial growth assay (OD600), statements on the whole panel; format: cell-based; settings: growth after 48 h
A/Hamburg/05/2009 (H1N1) = format: cell-based, influenza virus
[2] = system: Listeria monocytogenes DSM 20600; test: Antibacterial growth assay (OD600); settings: for Bacterial growth relative to medium, L. monocytogenes, replicate 1 / Bacterial growth relative to medium, L. monocytogenes, replicate 2 / Bacterial growth relative to medium, L. monocytogenes, replicate 3: OD600, medium = 100, MH II broth, 37 °C, peptide 200 µM mixed 50 µL + 50 µL with bacteria, Figure 7: 48 h; for Bacterial growth relative to medium, L. monocytogenes, replicate 1: replicate column 1; for Bacterial growth relative to medium, L. monocytogenes, replicate 2: replicate column 2; for Bacterial growth relative to medium, L. monocytogenes, replicate 3: replicate column 3
Protocol: (§1) Cryo-conserved cultures of selected bacterial strains (Table 4) were transferred to Tryptic Soy Agar (TSA) plates (Carl Roth) with a sterile inoculation loop, sealed with Parafilm (BEMIS, Neenah, WI, USA), and incubated for 1–2 days at 37 °C depending on growth. Single colonies were picked and transferred into 2–3 mL of the Mueller–Hinton II (MH II) broth (BD, Heidelberg, Germany). The bacteria were cultivated overnight, subcultured on fresh medium and grown for 3–4 h before testing at 37 °C, with shaking at 180 rpm. We measured the optical density at 600 nm (OD600) of 1 mL of the bacterial suspensions in polystyrene cuvettes (SARSTED, Nümbrecht, Germany) using an Ultrospec 10 spectrophotometer (Biochrome, Cambridge, UK). We then diluted them with the MH II medium to the preferred OD600 (Table 2). The peptides were dissolved in DMSO to generate 10 mmol/L stocks and diluted with the MH II medium to 200 µM before the assay. We used 10 µg/mL (~40 µg/mL for S. epidermidis) gentamicin and colistin (Sigma-Aldrich, Taufkirchen, Germany), DMSO and the medium only as controls. The bacteria were transferred to 96-multiwell plates with a final volume of 100 µL per well (50 µL bacterial suspension, and 50 µL test peptide). The OD600 was measured at 0, 24 and 48 h using a BioTek Eon microplate reader followed by analysis with Gen5 v2.09.

[3] = system: Pseudomonas aeruginosa DSM 1117; test: Antibacterial growth assay (OD600); settings: OD600, medium = 100, MH II broth, 37 °C, peptide 200 µM mixed 50 µL + 50 µL with bacteria, Figure 7: 48 h; for Bacterial growth relative to medium, P. aeruginosa (1117), replicate 1: replicate column 1; for Bacterial growth relative to medium, P. aeruginosa (1117), replicate 2: replicate column 2; for Bacterial growth relative to medium, P. aeruginosa (1117), replicate 3: replicate column 3
[4] = system: Staphylococcus aureus DSM 2569; test: Antibacterial growth assay (OD600); settings: for Bacterial growth relative to medium, S. aureus, replicate 1 / Bacterial growth relative to medium, S. aureus, replicate 2 / Bacterial growth relative to medium, S. aureus, replicate 3: OD600, medium = 100, MH II broth, 37 °C, peptide 200 µM mixed 50 µL + 50 µL with bacteria, Figure 7: 48 h; for Bacterial growth relative to medium, S. aureus, replicate 1: replicate column 1; for Bacterial growth relative to medium, S. aureus, replicate 2: replicate column 2; for Bacterial growth relative to medium, S. aureus, replicate 3: replicate column 3; for Antibacterial activity (in words): S. aureus DSM 2569, growth after 48 h
Protocol: as §1

[5] = system: Pseudomonas aeruginosa DSM 50071; test: Antibacterial growth assay (OD600); settings: OD600, medium = 100, MH II broth, 37 °C, peptide 200 µM mixed 50 µL + 50 µL with bacteria, Figure 7: 48 h; for Bacterial growth relative to medium, P. aeruginosa (50071), replicate 1: replicate column 1; for Bacterial growth relative to medium, P. aeruginosa (50071), replicate 2: replicate column 2; for Bacterial growth relative to medium, P. aeruginosa (50071), replicate 3: replicate column 3
Protocol: as §1

[6] = system: Staphylococcus epidermidis DSM 28319; test: Antibacterial growth assay (OD600); settings: for Bacterial growth relative to medium, S. epidermidis, replicate 1 / Bacterial growth relative to medium, S. epidermidis, replicate 2 / Bacterial growth relative to medium, S. epidermidis, replicate 3: OD600, medium = 100, MH II broth, 37 °C, peptide 200 µM mixed 50 µL + 50 µL with bacteria, Figure 7: 48 h; for Bacterial growth relative to medium, S. epidermidis, replicate 1: replicate column 1; for Bacterial growth relative to medium, S. epidermidis, replicate 2: replicate column 2; for Bacterial growth relative to medium, S. epidermidis, replicate 3: replicate column 3; for Antibacterial activity (in words): S. epidermidis DSM 28319, growth after 48 h
Protocol: as §1

[7] = system: B/Malaysia/2506/2004 (B-Mal); format: cell-based, influenza virus
[8] = system: Micrococcus luteus DSM 20030; test: Antibacterial growth assay (OD600); settings: for Antibacterial activity (in words): M. luteus DSM 20030, growth after 48 h; for Bacterial growth relative to medium, M. luteus, replicate 1 / Bacterial growth relative to medium, M. luteus, replicate 2 / Bacterial growth relative to medium, M. luteus, replicate 3: OD600, medium = 100, MH II broth, 37 °C, peptide 200 µM mixed 50 µL + 50 µL with bacteria, Figure 7: 48 h; for Bacterial growth relative to medium, M. luteus, replicate 1: replicate column 1; for Bacterial growth relative to medium, M. luteus, replicate 2: replicate column 2; for Bacterial growth relative to medium, M. luteus, replicate 3: replicate column 3
[9] = system: Escherichia coli BL21(DE3); test: Antibacterial growth assay (OD600); settings: for Bacterial growth relative to medium, E. coli, replicate 1 / Bacterial growth relative to medium, E. coli, replicate 2 / Bacterial growth relative to medium, E. coli, replicate 3: OD600, medium = 100, MH II broth, 37 °C, peptide 200 µM mixed 50 µL + 50 µL with bacteria, Figure 7: 48 h; for Bacterial growth relative to medium, E. coli, replicate 1: replicate column 1; for Bacterial growth relative to medium, E. coli, replicate 2: replicate column 2; for Bacterial growth relative to medium, E. coli, replicate 3: replicate column 3
G. mellonella larvae = test: Insecticidal activity by injection into larvae; format: in vivo, Galleria mellonella; settings: 50 ng peptide injected, 3 cohorts of 10 larvae, survival monitored for 5 days
Protocol: Insecticidal activity was determined using fourth and fifth instar G. mellonella larvae (L4/L5) obtained from Fauna Topics Zoobedarf Zucht und Handels GmbH (Marbach am Neckar, Germany). Because spider venom is injected via chelicerae, we opted for an injection-based assay to reflect the natural process of envenomation as described earlier. The peptides were dissolved in a 1:1 mixture of DMSO and water to a final concentration of 10 mmol/L. We injected 50 ng of each peptide into the pseudopodium using Omnican-F, 0.30 × 12 mm/G 30 × 1/2”, a 1 mL syringe adjusted to a WPI manual microsyringe injector setup. Injections with water, DMSO/water (1:1) and ethanol (90%) were used as controls, alongside untreated specimens. Insecticidal activity screenings were performed in cohorts of 10 larvae with 3 replicates (30 specimens per treatment or control). […] Survival was monitored every 24 h for 5 days. Mortality was calculated based on the ratio of dead to injected specimens.

| Sequence | Viability of infected cells relative to aprotinin, Replicate 1 (A/Hessen/1/2003 (H3N2)) | Viability of infected cells relative to aprotinin, Replicate 2 (A/Hessen/1/2003 (H3N2)) | Viability of infected cells relative to aprotinin, Replicate 3 (A/Hessen/1/2003 (H3N2)) | Viability of infected cells relative to aprotinin, Replicate 1 (A/Hamburg/05/2009 (H1N1)) | Viability of infected cells relative to aprotinin, Replicate 2 (A/Hamburg/05/2009 (H1N1)) | Viability of infected cells relative to aprotinin, Replicate 3 (A/Hamburg/05/2009 (H1N1)) | Bacterial growth relative to medium, L. monocytogenes, replicate 1 [2] | Bacterial growth relative to medium, L. monocytogenes, replicate 2 [2] | Bacterial growth relative to medium, L. monocytogenes, replicate 3 [2] | Bacterial growth relative to medium, P. aeruginosa (1117), replicate 1 [3] | Bacterial growth relative to medium, P. aeruginosa (1117), replicate 2 [3] | Bacterial growth relative to medium, P. aeruginosa (1117), replicate 3 [3] | Bacterial growth relative to medium, S. aureus, replicate 1 [4] | Bacterial growth relative to medium, S. aureus, replicate 2 [4] | Bacterial growth relative to medium, S. aureus, replicate 3 [4] | Bacterial growth relative to medium, P. aeruginosa (50071), replicate 1 [5] | Bacterial growth relative to medium, P. aeruginosa (50071), replicate 2 [5] | Bacterial growth relative to medium, P. aeruginosa (50071), replicate 3 [5] | Bacterial growth relative to medium, S. epidermidis, replicate 1 [6] | Bacterial growth relative to medium, S. epidermidis, replicate 2 [6] | other results |
| --- | --- | --- | --- | --- | --- | --- | --- | --- | --- | --- | --- | --- | --- | --- | --- | --- | --- | --- | --- | --- | --- |
| DVVKSKVGQT [LS-AMP-A20] | 0.06093 | 0.1556 | 0.1529 | 0.03404 | 0.03606 | 0.06978 | 113.144 | 85.2342 | 40.8896 | 78.7161 | 66.133 | 53.5452 | 65.5327 | 71.5501 | 85.4097 | 100.814 | 110.766 | 86.151 | 65.0524 | 56.0414 | Viability of infected cells relative to aprotinin, Replicate 4 (A/Hessen/1/2003 (H3N2); […], replicate 4 (additional internal control)): 0.1478; Antibacterial activity over the panel (in words) [1]: marginal effects against several bacteria; Bacterial growth relative to medium, S. epidermidis, replicate 3 [6]: 87.4721; Viability of infected cells relative to aprotinin, Replicate 1 [7]: 0.07308; Viability of infected cells relative to aprotinin, Replicate 2 [7]: 0.07936; Viability of infected cells relative to aprotinin, Replicate 3 [7]: 0.06088; Antibacterial activity (in words) [8]: strongest effect; Bacterial growth relative to medium, M. luteus, replicate 1 [8]: 84.9437; Bacterial growth relative to medium, M. luteus, replicate 2 [8]: 89.1892; Bacterial growth relative to medium, M. luteus, replicate 3 [8]: 58.8713; Bacterial growth relative to medium, E. coli, replicate 1 [9]: 95.2629; Bacterial growth relative to medium, E. coli, replicate 2 [9]: 75.2606; Bacterial growth relative to medium, E. coli, replicate 3 [9]: 50.6769; Insecticidal effect on larvae (in words) (G. mellonella larvae): Individual dead insects |
| GSLLGLLDVVKSKVGQTGLL [LS-AMP-A19] | 0.07115 | 0.1267 | 0.119 | 0.03506 | 0.03971 | 0.04612 | 151.42 | 105.659 | 60.4017 | 72.8823 | 76.8187 | 66.0758 | 70.8601 | 71.4846 | 83.7635 | 103.493 | 107.483 | 85.194 | 91.5432 | 106.521 | Antibacterial activity over the panel (in words) [1]: largely inactive; Bacterial growth relative to medium, S. epidermidis, replicate 3 [6]: 92.445; Viability of infected cells relative to aprotinin, Replicate 1 [7]: 0.02926; Viability of infected cells relative to aprotinin, Replicate 2 [7]: 0.02406; Viability of infected cells relative to aprotinin, Replicate 3 [7]: 0.04584; Antibacterial activity (in words) [8]: strongly suppressed the growth; Bacterial growth relative to medium, M. luteus, replicate 1 [8]: 38.8889; Bacterial growth relative to medium, M. luteus, replicate 2 [8]: 63.626; Bacterial growth relative to medium, M. luteus, replicate 3 [8]: 16.4993; Bacterial growth relative to medium, E. coli, replicate 1 [9]: 95.9562; Bacterial growth relative to medium, E. coli, replicate 2 [9]: 82.2712; Bacterial growth relative to medium, E. coli, replicate 3 [9]: 94.9872; Insecticidal effect on larvae (in words) (G. mellonella larvae): Individual dead insects |
| LLDVVKSKIGQTGLL [LS-AMP-A16] | 0.0324 | 0.05366 | 0.1082 | 0.02774 | 0.02676 | 0.01877 | 81.5984 | 58.0902 | 20.8033 | 71.8168 | 74.7999 | 64.6393 | 50.7381 | 99.8365 | 66.4796 | 93.645 | 105.945 | 72.2488 | 52.6925 | 45.3012 | Antibacterial activity over the panel (in words) [1]: broad activity against all tested bacteria except P. aeruginosa DSM50071; Antibacterial activity (in words) ([2]; L. monocytogenes DSM 20600, growth after 48 h): able to decrease the growth; Antibacterial activity (in words) [4]: able to decrease the growth; Bacterial growth relative to medium, S. epidermidis, replicate 3 [6]: 72.1389; Antibacterial activity (in words) [6]: able to decrease the growth; Viability of infected cells relative to aprotinin, Replicate 1 [7]: 0.002646; Viability of infected cells relative to aprotinin, Replicate 2 [7]: 0.01088; Viability of infected cells relative to aprotinin, Replicate 3 [7]: 0.03862; Antibacterial activity (in words) [8]: able to decrease the growth; Bacterial growth relative to medium, M. luteus, replicate 1 [8]: 57.3268; Bacterial growth relative to medium, M. luteus, replicate 2 [8]: 84.1216; Bacterial growth relative to medium, M. luteus, replicate 3 [8]: 27.4989; Antibacterial activity (in words) ([9]; E. coli BL21(DE3), growth after 48 h): able to decrease the growth; Bacterial growth relative to medium, E. coli, replicate 1 [9]: 67.9376; Bacterial growth relative to medium, E. coli, replicate 2 [9]: 59.8494; Bacterial growth relative to medium, E. coli, replicate 3 [9]: 34.0285; Insecticidal effect on larvae (in words) (G. mellonella larvae): Individual dead insects |
| SLLGLLDVVKSKIGQTGLL [LS-AMP-A13] | 0.1762 | 0.09602 | 0.1319 | 0.06606 | 0.03634 | 0.07331 | 131.861 | 134.66 | 121.808 | 81.1135 | 69.8921 | 76.1614 | 71.9833 | 81.2949 | 106.322 | 102.39 | 115.883 | 93.6736 | 109.035 | 130.725 | Antibacterial activity (in words) [4]: limited activity; Bacterial growth relative to medium, S. epidermidis, replicate 3 [6]: 108.734; Antibacterial activity (in words) [6]: limited activity; Viability of infected cells relative to aprotinin, Replicate 1 [7]: 0.08268; Viability of infected cells relative to aprotinin, Replicate 2 [7]: 0.06182; Viability of infected cells relative to aprotinin, Replicate 3 [7]: 0.0661; Bacterial growth relative to medium, M. luteus, replicate 1 [8]: 108.132; Bacterial growth relative to medium, M. luteus, replicate 2 [8]: 162.387; Bacterial growth relative to medium, M. luteus, replicate 3 [8]: 79.7227; Bacterial growth relative to medium, E. coli, replicate 1 [9]: 109.532; Bacterial growth relative to medium, E. coli, replicate 2 [9]: 109.096; Bacterial growth relative to medium, E. coli, replicate 3 [9]: 112.001; Insecticidal effect on larvae (in words) (G. mellonella larvae): Individual dead insects |
